US11634396B2 (priority 2021, dated 2023)
pIC50: −log10 of the molar value.

Molecular target: human mOR (Homo sapiens (Human), UniProt P35372)
Experiment: cell-based
Settings: not given

Chain of human mOR (P35372 whole entry): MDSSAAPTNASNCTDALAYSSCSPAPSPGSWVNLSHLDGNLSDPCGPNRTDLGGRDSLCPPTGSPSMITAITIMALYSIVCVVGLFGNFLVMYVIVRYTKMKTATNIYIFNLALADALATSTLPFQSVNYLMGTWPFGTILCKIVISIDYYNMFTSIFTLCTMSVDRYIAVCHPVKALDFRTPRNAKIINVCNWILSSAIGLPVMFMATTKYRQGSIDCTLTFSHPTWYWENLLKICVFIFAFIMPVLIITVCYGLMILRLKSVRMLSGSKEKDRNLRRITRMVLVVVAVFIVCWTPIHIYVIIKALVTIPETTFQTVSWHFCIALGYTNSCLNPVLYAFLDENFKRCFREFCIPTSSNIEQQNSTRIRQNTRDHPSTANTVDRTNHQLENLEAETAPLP

SMILES | pIC50
CNC(=O)c1ccc(C[C@@H](CNC(=O)C[C@H](c2ccc(F)cc2)C2(C(F)(F)F)CC2)N(C)C)c(C)c1 [Compound 128, 4-((S)-2-(dimethylamino)-3-((R)-3-(4-fluorophenyl)-3-(1-(trifluoromethyl)cyclopropyl)propanamido)propyl)-N,3-dimethylbenzamide] | > 6.52
CN(C)[C@H](CNC(=O)C[C@H](c1ccncc1F)C1(C(F)(F)F)CC1)Cc1ccc(C(N)=O)c(F)c1 [Compound 61, 4-((S)-2-(dimethylamino)-3-((R)-3-(3-fluoropyridin-4-yl)-3-(1-(trifluoromethyl)cyclopropyl)propanamido)propyl)-2-fluorobenzamide] | < 5.52
CNC(=O)c1ccc(C[C@@H](CNC(=O)C[C@H](c2ccncc2F)C2(C(F)(F)F)CC2)N(C)C)c(C)c1 [Compound 127, 4-((S)-2-(dimethylamino)-3-((R)-3-(3-fluoropyridin-4-yl)-3-(1-(trifluoromethyl)cyclopropyl)propanamido)propyl)-N,3-dimethylbenzamide] | > 6.52
CNC(=O)c1ccc(C[C@@H](CNC(=O)CC(c2cccnc2)C2(C(F)(F)F)CC2)N(C)C)c(C)c1F (stereo in doubt) [Compound 124, 4-((S)-2-(dimethylamino)-3-((S)-3-(pyridin-3-yl)-3-(1-(trifluoromethyl)cyclopropyl)propanamido)propyl)-2-fluoro-N,3-dimethylbenzamide] | < 5.52
Cc1ccc([C@@H](CC(=O)NC[C@H](Cc2cc(F)c(C(N)=O)c(F)c2)N(C)C)C2(C(F)(F)F)CC2)cn1 [Compound 47, 4-((S)-2-(dimethylamino)-3-((R)-3-(6-methylpyridin-3-yl)-3-(1-(trifluoromethyl)cyclopropyl)propanamido)propyl)-26-difluorobenzamide] | > 6.52
CNC(=O)c1ccc(C[C@@H](CNC(=O)CC(c2cncc(OC)c2)C2(C(F)(F)F)CC2)N(C)C)c(Cl)c1 (stereo partly drawn) [Compound 117, 3-chloro-4-((2S)-2-(dimethylamino)-3-(3-(5-methoxypyridin-3-yl)-3-(1-(trifluoromethyl)cyclopropyl)propanamido)propyl)-N-methylbenzamide] | < 5.52
Cc1cc(O)cc(C)c1C[C@@H](CNC(=O)CC(c1ncc(Cl)cn1)C1(C(F)(F)F)CC1)N(C)C (stereo partly drawn) [Compound 246, 3-(5-chloropyrimidin-2-yl)-N-((S)-2-(dimethylamino)-3-(4-hydroxy-2,6-dimethylphenyl)propyl)-3-(1-(trifluoromethyl)cyclopropyl)propanamide] | > 6.52
CN(C)[C@H](CNC(=O)C[C@H](c1cccnc1)C1(C(F)(F)F)CC1)Cc1cc2cn[nH]c2cc1Cl [Compound 235, (R)-N-((S)-3-(6-chloro-1H-indazol-5-yl)-2-(dimethylamino)propyl)-3-(pyridin-3-yl)-3-(1-(trifluoromethyl)cyclopropyl)propanamide] | > 6.52
CN(C)[C@H](CNC(=O)C[C@H](c1ccncc1)C1(C(F)(F)F)CC1)Cc1ccc(O)cc1Cl [Compound 261, (R)-N-((S)-3-(2-chloro-4-hydroxyphenyl)-2-(dimethylamino)propyl)-3-(pyridin-4-yl)-3-(1-(trifluoromethyl)cyclopropyl)propanamide] | > 6.52
Cc1cc(O)ccc1C[C@@H](CNC(=O)CC(c1cccnc1)C1(C(F)(F)F)CC1)N(C)C (stereo partly drawn) [Compound 272, N-((S)-2-(dimethylamino)-3-(4-hydroxy-2-methylphenyl)propyl)-3-(pyridin-3-yl)-3-(1-(trifluoromethyl)cyclopropyl)propanamide] | > 6.52
CN(C)[C@H](CNC(=O)CC(c1ccc(Cl)cn1)C1(C(F)(F)F)CC1)Cc1ccc(C(N)=O)c(F)c1 (stereo partly drawn) [Compound 69, 4-((2S)-3-(3-(5-chloropyridin-2-yl)-3-(1-(trifluoromethyl)cyclopropyl)propanamido)-2-(dimethylamino)propyl)-2-fluorobenzamide] | > 6.52
CN(C)[C@H](CNC(=O)C[C@H](CC1CC1)c1cccnc1)Cc1ccc(O)c(Cl)c1 [Compound 286, (S)-N-((S)-3-(3-chloro-4-hydroxyphenyl)-2-(dimethylamino)propyl)-4-cyclopropyl-3-(pyridin-3-yl)butanamide] | > 6.52
CN(C)[C@H](CNC(=O)C[C@H](c1ccoc1)C1(C(F)(F)F)CC1)Cc1ccc(C(N)=O)c(F)c1 [Compound 51, 4-((S)-2-(dimethylamino)-3-((R)-3-(furan-3-yl)-3-(1-(trifluoromethyl)cyclopropyl)propanamido)propyl)-2-fluorobenzamide] | > 6.52
CNC(=O)c1ccc(C[C@@H](CNC(=O)CC(c2ccc(F)cn2)C2(C(F)(F)F)CC2)N(C)C)c(Cl)c1 (stereo partly drawn) [Compound 121, 3-chloro-4-((2S)-2-(dimethylamino)-3-(3-(5-fluoropyridin-2-yl)-3-(1-(trifluoromethyl)cyclopropyl)propanamido)propyl)-N-methylbenzamide] | > 6.52
CNC(=O)c1ccc(C[C@@H](CNC(=O)C[C@H](c2cnc(C)s2)C2(C(F)(F)F)CC2)N(C)C)c(F)c1 [Compound 123, 4-((S)-2-(dimethylamino)-3-((S)-3-(2-methylthiazol-5-yl)-3-(1-(trifluoromethyl)cyclopropyl)propanamido)propyl)-3-fluoro-N-methylbenzamide] | > 6.52
CN(C)[C@H](CNC(=O)C[C@@H](CC1CC1)c1cccnc1)Cc1ccc(O)c(Cl)c1 [Compound 279, (R)-N-((S)-3-(3-chloro-4-hydroxyphenyl)-2-(dimethylamino)propyl)-4-cyclopropyl-3-(pyridin-3-yl)butanamide] | > 6.52
CN(C)[C@H](CNC(=O)C[C@H](c1cccnc1)C1(C)CC1)Cc1ccc(O)cc1 [Compound 303, (S)-N-((S)-2-(dimethylamino)-3-(4-hydroxyphenyl)propyl)-3-(1-methylcyclopropyl)-3-(pyridin-3-yl)propanamide] | > 6.52
Cc1ncc([C@@H](CC(=O)NC[C@H](Cc2ccc(C(N)=O)c(F)c2C)N(C)C)C2CC2)cn1 [Compound 42, 4-((S)-3-((S)-3-cyclopropyl-3-(2-methylpyrimidin-S-yl)propanamido)-2-(dimethylamino)propyl)-2-fluoro-3-methylbenzamide] | < 5.52
Cc1cc(O)cc(C)c1C[C@@H](CNC(=O)C[C@H](c1cncc(Cl)c1)C1(C(F)(F)F)CC1)N(C)C [Compound 245, (R)-3-(5-chloropyridin-3-yl)-N-((S)-2-(dimethylamino)-3-(4-hydroxy-2,6-dimethylphenyl)propyl)-3-(1-(trifluoromethyl)cyclopropyl)propanamide] | > 6.52
CN(C)[C@H](CNC(=O)C[C@@H](CC1CC1)c1cccnc1)Cc1ccc(O)cc1 [Compound 310, (R)-4-cyclopropyl-N-((S)-2-(dimethylamino)-3-(4-hydroxyphenyl)propyl)-3-(pyridin-3-yl)butanamide] | > 6.52
CN(C)c1ncc(C(CC(=O)NC[C@H](Cc2ccc(C(N)=O)cc2Cl)N(C)C)C2(C(F)(F)F)CC2)cn1 (stereo partly drawn) [Compound 29, 3-chloro-4-[(2S)-2-(dimethylamino)-3-{3-[2-(dimethylamino)pyrimidin-5-yl]-3-[1-(trifluoromethyl)cyclopropyl]propanamido}propyl]benzamide] | > 6.52
Cc1cc(O)ccc1C[C@@H](CNC(=O)C[C@H](c1cccnc1)C1(C(F)(F)F)CC1)N(C)C [Compound 269, (R)-N-((S)-2-(dimethylamino)-3-(4-hydroxy-2-methylphenyl)propyl)-3-(pyridin-3-yl)-3-(1-(trifluoromethyl)cyclopropyl)propanamide] | > 6.52
CNC(=O)c1ccc(C[C@@H](CNC(=O)C[C@@H](CC(C)C)c2ccccn2)N(C)C)c(C)c1 [Compound 140, 4-((S)-2-(dimethylamino)-3-((R)-5-methyl-3-(pyridin-2-yl)hexanamido)propyl)-N,3-dimethylbenzamide] | < 5.52
Cc1ccc([C@@H](CC(=O)NC[C@H](Cc2ccc(C(N)=O)c(F)c2)N(C)C)C2(C(F)(F)F)CC2)s1 [Compound 53, 4-((S)-2-(dimethylamino)-3-((S)-3-(5-methylthiophen-2-yl)-3-(1-(trifluoromethyl)cyclopropyl)propanamido)propyl)-2-fluorobenzamide] | > 6.52

Same assay, conditions: CHO Tag-lite human mOR stable cell line; forskolin 4 μM and DAMGO at EC90; read-out: mOR cAMP Antagonist Assay IC50

SMILES | pIC50
CN(C)[C@H](CNC(=O)C[C@H](c1cncs1)C1(C(F)(F)F)CC1)Cc1ccc(C(N)=O)c(F)c1F [Compound 2, 4-((S)-2-(dimethylamino)-3-((S)-3-(thiazol-5-yl)-3-(1-(trifluoromethyl)cyclopropyl)propanamido)propyl)-2,3-difluorobenzamide] | > 6.52
CN(C)[C@H](CNC(=O)C[C@H](c1ccncc1)C1(C(F)(F)F)CC1)Cc1cc2cn[nH]c2cc1Cl [Compound 234, (R)-N-((S)-3-(6-chloro-H-indazol-5-yl)-2-(dimethylamino)propyl)-3-(pyridin-4-yl)-3-(1-(trifluoromethyl)cyclopropyl)propanamide] | > 6.52
Cc1cc(O)cc(C)c1C[C@@H](CNC(=O)C[C@H](C)c1ccc(Cl)cc1)N(C)C [Compound 250, (S)-3-(4-chlorophenyl)-N-((S)-2-(dimethylamino)-3-(4-hydroxy-2,6-dimethylphenyl)propyl)butanamide] | 5.52 to 6.52
Cc1ncc([C@@H](CC(=O)NC[C@H](Cc2ccc(O)cc2)N(C)C)C2CC2)cn1 [Compound 311, (S)-3-cyclopropyl-N-((S)-2-(dimethylamino)-3-(4-hydroxyphenyl)propyl)-3-(2-methylpyrimidin-5-yl)propanamide] | 5.52 to 6.52
CN(C)[C@H](CNC(=O)C[C@H](c1cccnc1)C1CC1)Cc1ccc(O)cc1 [Compound 308, (S)-3-cyclopropyl-N-((S)-2-(dimethylamino)-3-(4-hydroxyphenyl)propyl)-3-(pyridin-3-yl)propanamide] | 5.52 to 6.52

Same assay, conditions: read-out: mOR cAMP Antagonist Assay IC50

pIC50 | SMILES
5.52 to 6.52 | Cc1cnc([C@@H](CC(=O)NC[C@H](Cc2ccc(C(N)=O)c(F)c2)N(C)C)C2(C(F)(F)F)CC2)s1 [Compound 56, 4-((S)-2-(dimethylamino)-3-((S)-3-(5-methylthiazol-2-yl)-3-(1-(trifluoromethyl)cyclopropyl)propanamido)propyl)-2-fluorobenzamide]
